Data reported in patent US20020031795A1, “Nitrocoumarins for detecting all micro-organisms” (priority 1998, published 2002).

Legend:
[1] = test system: E. coli (NCTC strain 10418); assay: Fluorescent signal generated by E. coli reducing nitrocoumarins (nitroaryl reductase activity); assay type: cell-based, Escherichia coli; conditions: 0.105 mmol/l; for Extent of reduction of the substrate (in words): end of the four-hour assay
Method: (§1) A sample of the 7-nitrocoumarin derivative is dissolved in 4 ml of hot, distilled water. The mass dissolved to make the stock solution is such that the final concentration of the compound in the assay is 0.105 mmol/l. This solution is added to 96 ml of Mueller-Hinton broth and the mixture is sterile-filtered.
(§2) The E. coli was grown for 24 hours at 35° C. on Columbia agar supplemented with sheep blood. The bacteria were then resuspended in sterile, distilled water and their density was adjusted to 0.5 on the MacFarland scale (i.e. about 10^8 cells/ml). This suspension was then diluted 100-fold in sterile Mueller-Hinton broth (i.e. to a final density of about 10^6 cells/ml).
(§3) Fifty microliters of each nitrocoumarin solution plus 50 μl of bacterial suspension were then added to the wells of a microtiter plate. The plates were incubated at 35° C. and the optical density and fluorescence of each well was read every 30 min for a total of 4 hours. Optical density (690 nm) readings were made using an Anthos 2001 spectrophotometer (Labtech International Limited), and fluorescence (excitation at 365 nm and emission at 440 nm) readings were made on a Biolite F1 2001 fluorometer (Labtech International Limited).
(§4) The effect of the concentration of 7-nitrocoumarin-3-carboxylic acid on the sensitivity of the assay to detect E. coli (NCTC strain 10418) was investigated at concentrations of the indicator ranging from 0 to 0.262 mmol/l. All other conditions were identical to those described in section A above.

[2] = test system: Escherichia coli (NCTC 10418); assay: Growth of E. coli in Mueller-Hinton broth in the presence of nitrocoumarins (optical density 690 nm); assay type: cell-based; conditions: 0.105 mmol/l
Method: as §1, §2, §3, §4

SMILES	Fluorescent signal ([1]; 0 min)	Fluorescent signal ([1]; 30 min)	Fluorescent signal ([1]; 60 min)	Fluorescent signal ([1]; 90 min)	Fluorescent signal ([1]; 120 min)	Fluorescent signal ([1]; 150 min)	Fluorescent signal ([1]; 180 min)	Fluorescent signal ([1]; 210 min)	Fluorescent signal ([1]; 240 min)	Optical density (690 nm) ([2]; 0 min)	Optical density (690 nm) ([2]; 30 min)	Optical density (690 nm) ([2]; 60 min)	Optical density (690 nm) ([2]; 90 min)	Optical density (690 nm) ([2]; 120 min)	Optical density (690 nm) ([2]; 150 min)	Optical density (690 nm) ([2]; 180 min)	Optical density (690 nm) ([2]; 210 min)	Optical density (690 nm) ([2]; 240 min)	other results
CC(=O)c1c(C)c2ccc([N+](=O)[O-])cc2oc1=O [3-acetyl-4-methyl-7-nitrocoumarin]	0	40	390	992	1804	2811	4090	5576	8017	0.000	−0.003	−0.002	−0.001	0.002	0.008	0.023	0.051	0.110	–
CCCC(=O)c1cc2ccc([N+](=O)[O-])cc2oc1=O [3-butyryl-7-nitrocoumarin]	0	64	387	894	1538	2344	3329	4642	6845	0.000	0.001	0.005	0.007	0.009	0.012	0.015	0.039	0.096	Extent of reduction of the substrate (in words) [1]: least reduced; Inhibitory effect on the growth of E. coli (in words) [2]: most powerful inhibitors
Cc1cc(=O)oc2cc([N+](=O)[O-])ccc12 [4-methyl-7-nitrocoumarin]	0	15	302	974	2008	3299	5097	7545	11125	0.000	0.000	0.002	0.004	0.010	0.024	0.055	0.113	0.175	–
O=C(c1cc2ccc([N+](=O)[O-])cc2oc1=O)N1CCOCC1 [7-nitrocoumarin-3-carboxymorpholide]	0	180	665	1376	2414	3796	5817	8454	12263	0.000	−0.002	−0.001	0.001	0.005	0.014	0.037	0.068	0.109	–
O=c1ccc2ccc([N+](=O)[O-])cc2o1 [7-nitrocoumarin]	0	77	519	1447	2915	4713	7160	10182	14189	0.000	−0.002	0.000	0.002	0.009	0.025	0.072	0.133	0.211	–
CCOC(=O)c1cc2ccc([N+](=O)[O-])cc2oc1=O [ethyl-7-nitrocoumarin-3-carboxylate]	0	173	814	1703	2813	4126	5646	7370	10859	0.000	−0.005	−0.008	−0.008	−0.006	0.000	0.018	0.046	0.116	–
COC(=O)c1cc2ccc([N+](=O)[O-])cc2oc1=O [methyl-7-nitrocoumarin-3-carboxylate]	0	174	702	1297	2035	2905	3946	5005	6668	0.000	−0.001	−0.001	0.000	0.000	0.002	0.006	0.014	0.032	Extent of reduction of the substrate (in words) [1]: least reduced; Inhibitory effect on the growth of E. coli (in words) [2]: most powerful inhibitors; OD readings reduced compared with the untreated control [2]: 92%
